Source: a melting point compilation (Tetko et al.; mined from patent text by program, amines drawn as free bases though some values may be those of a salt)

melting point	Structure (SMILES)
218 to 220 °C	CCCC(=O)NCc1nc(-c2ccc3c(c2)Nc2ccccc2S3)cs1
87 to 88 °C	CCOC(=O)C(O)CCc1ccc(C(=O)CCc2nc(-c3ccccc3)oc2C)cc1 (stereo not drawn)
198 to 199 °C	O=C(O)c1c(-c2ccccc2)csc1N1C(=O)c2ccccc2C1=O
74 to 84 °C	CC(C)[C@H](NC(=O)CC[C@H](C)CNC(=O)COc1ccccc1)[C@@H](O)c1c(-c2ccccc2)c1=O
171 to 173 °C	CP(C)(=O)COC(=O)c1ccc(-n2c(-c3ccccc3)cc3c2-c2ccccc2CC3)cc1
156 °C	CCOC(=O)CCC(NC(=O)c1ccc(NC2CCc3cc4nc(C)n(COC(=O)C(C)(C)C)c(=O)c4cc32)cc1)C(=O)OCC (mixture of isomers)
61 °C	CCn1ccc(-c2cccc(-c3ccnc4c(C(=O)c5cccs5)cnn34)c2)n1
238 to 240 °C	CS(=O)(=O)c1ccc(Nc2cc(N3CCOCC3)nc(-c3ccccc3)n2)cc1
230 °C	COC(=O)c1ccc2c(c1)c1cc(-c3ccc(C=O)cc3)c(=O)n(C)c1n2C
151 to 152 °C	CCN(CC)CCN(CC)C(=O)c1ccc(Nc2ccnc3c(C(F)(F)F)cccc23)cc1
225 to 227 °C	CC(=O)Nc1ccccc1NS(=O)(=O)c1cc(C(=O)O)cc([N+](=O)[O-])c1Cl
228 to 230 °C	COc1ccc2ncc(C#N)c(Nc3cc(O)c(Cl)cc3F)c2c1
200 to 202 °C	O=C(O)c1c(-c2cccc(OCC3CC3)c2)c2ccccc2n1Cc1ccc(F)cc1
> 230 °C	Cc1ccccc1C(=O)Nn1c(=O)c(=O)[nH]c2ccc3ccc([N+](=O)[O-])cc3c21
120 to 123 °C	O=C(Nc1ccc(N2CCN(C(=O)Nc3ccc(OCCO)cc3C(F)(F)F)CC2)cc1)Nc1nc(C2CC2)cs1
163 to 164 °C	C=CCNc1ncnc2c1ncn2Cc1c(F)cccc1Cl
330 to 334 °C	Nc1nc(O)ncc1-c1cccc(Cl)c1Cl
256 to 280 °C	O=C(O)c1ccc(COCc2csc3nc(C(=O)NCc4cccc(F)c4)[nH]c(=O)c23)cc1
185 to 186 °C	CS(=O)(=O)c1ccc(NCCc2[nH]c3c(cnc4cc(Cl)ccc43)c2C=NNc2ccccc2)cc1
176 to 177 °C	O=S(=O)(N[C@H](Cc1ccc(C(F)(F)F)cc1)[C@@H](O)c1ccc(F)cc1)c1cccc2ccccc12 (racemic)
101 °C	CC(C)c1ccc(S(=O)(=O)Nc2ccc(C(F)(F)F)cc2I)cc1
333 °C	CCn1c(N)c(C(=O)NC)c(=O)c2ccc(-c3ccc(NS(=O)(=O)c4cccc(Cl)c4Cl)c(F)c3)nc21
210 to 213 °C	Cc1cccc(C)c1N1C(=O)c2ccc(C(=O)O)cc2C1=O
123 °C	Cn1nc(-c2cc(Oc3ccccc3)c(C#N)cc2F)c(Cl)c1C(F)(F)F
130 to 132 °C	CC(=O)C=Cc1ccc(NS(C)(=O)=O)c(Oc2ccc(F)cc2F)c1
232 to 235 °C	CCn1cc(C(=O)O)c(=O)c2cc(F)c(N3C[C@@H](N)[C@@H]3C)cc21 (relative stereo)
162 °C	CC1CCCC(C)N1S(=O)(=O)N[C@@H](Cc1ccc(NC(=O)c2c(Cl)cncc2Cl)cc1)C(=O)O (stereo partly drawn)

The next lines start with the compound.

Structure (SMILES)	melting point
COc1ccccc1N1CCN(C(=O)[C@H](N)Cc2cccnc2)CC1	> 240 °C
CCON=C(C)c1cccnc1	160 to 162 °C
CCCCCCCCCCC1(CCCCCCCCCC)c2cc(C=O)ccc2-c2ccc(N(c3ccccc3)c3ccccc3)cc21	77 to 78.5 °C
CC1(C)OC(c2ccccc2)CN1C(=O)C(Cl)Cl (stereo not drawn)	99.5 to 100 °C
CCOC(=O)C(=Cc1ccc(O)cc1)C(=O)CCl	92 to 95 °C
COC(=O)c1cc(-c2ccc(S(C)(=O)=O)cc2)n(C2CCCCC2)n1	108 °C
Brc1ccc(/C=N/c2ccccc2)c(OCc2ccccc2)c1	100 °C
O=C(c1ccccc1)c1cc(-c2ccc(Cl)cc2)c(N2CCOCC2)s1	180 °C
CS(=O)(=O)N(Cc1ccncc1)c1ccc(F)cc1F	101 to 105 °C
CCCCCC(CC(=O)Nc1c(C(C)C)cccc1C(C)C)c1cccc2c1OCO2 (stereo not drawn)	114 to 115 °C
Cl/C(=C\c1ccc(Br)cc1)c1ccc(Cl)cc1	108 °C
N#Cc1ccc(CCCCC(=O)O)cc1	101 to 102 °C
COC(=O)NN=C1CCCCCC1	75 °C
COc1cc2ncnc(N3CCN(C(=O)Nc4ccc5[nH]ccc5c4)CC3)c2cc1OC	209 to 210 °C
CC(=O)Oc1ccc(C(=O)O)cc1Cl	152 to 159 °C
CCN(CC)c1cc(C)c2ncc(C#N)c(O)c2c1	> 250 °C
CCCCCCCCCC(=O)SCC(C)(C(=O)Nc1cccc(C(=O)O)c1C)c1ccccc1 (stereo not drawn)	105 to 111 °C
CNC(=O)c1cc(Br)cc(C)c1N	133 to 135 °C
COC(=O)c1ccc(C(=O)c2cc3c(cc2C)OC2(C)C4CCC(C)(C4)C32C)cc1 (stereo not drawn)	140 to 142 °C
COC(=O)c1c(SC)nn(C2CCCC2)c1N	88 to 89 °C
Cc1ccc(C)c(C(=O)NCCC23CC4CC(CC(C4)C2)C3)c1	153 °C

Structure (SMILES)	melting point
O=C1CCc2cc(Cl)cc(Cl)c2C1	90 to 92 °C
N=C(c1ccccc1)c1cc(Cl)ccc1O	129 to 131 °C
CCOc1cc2c(cc1OCC)CCCC(C(=O)N1CCN(C(=O)c3cc(OC)c(OC)c(OC)c3)CC1)=C2	183 to 185 °C
Cc1ccc(C)c(NC(=O)CCl)c1C	145 to 146 °C
CC1COc2c(F)c(F)c([N+](=O)[O-])c3c(=O)[nH]c(=O)n1c23 (stereo not drawn)	286 to 288 °C
COc1cc(OC)cc(N2CCN(C(=O)Nc3cc(-c4ccccn4)nc4ccccc34)CC2)c1	97 to 98 °C
COc1cc(OC)c2cc(-c3ccc(C#N)cc3)oc2c1	220 to 221 °C
CC1CC(=O)C(C(=O)c2ccc(S(C)(=O)=O)cc2[N+](=O)[O-])C(=O)C1(C)C (stereo not drawn)	166 to 167 °C
OCC1CCC(n2cnc3cc(Cl)c(Cl)cc32)C1 (stereo not drawn)	142 to 145 °C
O=C(O)c1cc(O)c(-c2ccccc2)c([N+](=O)[O-])c1	213 to 215 °C
Oc1ccc(-c2ccc(-c3ccccc3)nc2-c2ccc(OCCN3CCCC3)cc2)cc1	176 to 178 °C
CC(C)(C)OC(=O)N1[C@@H](c2ccccc2)[C@H](C(=O)OC(=O)[C@@H]2OC(C)(C)N(C(=O)OC(C)(C)C)[C@H]2c2ccccc2)OC1(C)C	46 °C
C=CCSc1ccc(Oc2ccc(C)cc2)nn1	115 to 117 °C
CC(C)(C)c1cc(/C=C/C(=O)O)n(Cc2ccc(C(F)(F)F)cc2Cl)n1	175 to 176 °C
CC1C(C#N)=C(N)OC2=C1C(=O)CC(c1cccc3ccccc13)C2 (stereo not drawn)	204 to 206 °C
CN1C(=O)C(C2OC(=O)c3ccccc32)N(C)C(=O)C1Cc1ccccc1 (stereo not drawn)	225 °C
CN(C[C@H]1CC[C@H](c2nc3ccccc3[nH]2)CC1)C(=O)OCc1ccccc1	146 to 148 °C
COC(=O)c1c(C)[nH]c(-c2ccncn2)c1C(=O)OC	210 to 211 °C
CC(=O)c1cc(CO)c(OCCCCC#N)cc1OCCCCC#N	98 to 99 °C
CCCCN(CC)c1nc(C)[nH]c2c(-c3ccc(Cl)cc3Cl)nc(C)c1-2	94 to 95 °C
